These are literature values, as cited in patent US20100279974A1, “Nucleosides With Non-Natural Bases as Anti-Viral Agents” (priority 2005, published 2010).

The conditions of the data set: in vivo.

`NC(=O)c1nccn(C2OC(COP(=O)(O)OP(=O)(O)OP(=O)(O)O)C(O)C2O)c1=O` (centres unmarked): the antiviral activity entry is “exhibits antiviral activity in vivo”.
With `NC(=O)c1nccn([C@@H]2O[C@H](CO)[C@@H](O)[C@H]2O)c1=O` [non-phosphorylated nucleoside form], the antiviral activity result was “appears to be inactive”.
